Measured values published in ChEMBL document CHEMBL4020771, “Activity of resveratrol triesters against primary acute lymphoblastic leukemia cells” (Bioorg Med Chem Lett, 2017).
Active and inactive are the calls of the source. No cut-off for these calls is given here.

Legend:
[1] = Cytotoxicity against human ALL5 cells after 120 hrs by MTT method; assay type: functional, cell-based; conditions: ALL5, 120 h
[2] = Cell cycle arrest in human ALL5 cells assessed as accumulation at G1 phase at 1 uM after 72 hrs by propidium iodide staining based flow cytometric analysis (reference value: 64.4%); assay type: functional
[3] = Cell cycle arrest in human ALL5 cells assessed as accumulation at S phase at 1 uM after 72 hrs by propidium iodide staining based flow cytometric analysis (reference value: 15.2%); assay type: functional
[4] = Cell cycle arrest in human ALL5 cells assessed as accumulation at G2 phase at 1 uM after 72 hrs by propidium iodide staining based flow cytometric analysis (reference value: 19.1%); assay type: functional
[5] = Cell cycle arrest in human ALL5 cells assessed as accumulation at subG1 phase at 1 uM after 72 hrs by propidium iodide staining based flow cytometric analysis (reference value: 0.54 %); assay type: functional
[6] = Cell cycle arrest in human ALL5 cells assessed as accumulation at S phase at 25 uM after 96 hrs by propidium iodide staining based flow cytometric analysis (reference value: 11.7 %); assay type: functional
[7] = system: HeLa; experiment: Cytotoxicity against human HeLa cells up to 10 uM after 72 hrs by MTT method; assay type: functional, cell-based
[8] = system: ALL5; experiment: Increase in p53 expression in human ALL5 cells at 25 uM after 96 hrs by Western blot analysis; assay type: functional, cell-based
[9] = Cell cycle arrest in human ALL5 cells assessed as accumulation at G2 phase at 25 uM after 96 hrs in presence of CDK4/6 inhibitor palbociclib by propidium iodide staining based flow cytometric analysis (reference value: 0.64%); assay type: functional
[10] = Cell cycle arrest in human ALL5 cells assessed as accumulation at subG1 phase at 25 uM after 120 hrs by propidium iodide staining based flow cytometric analysis (reference value: 3.44 %); assay type: functional
[11] = Cell cycle arrest in human ALL5 cells assessed as accumulation at S phase at 25 uM after 120 hrs by propidium iodide staining based flow cytometric analysis (reference value: 11.7 %); assay type: functional
[12] = Cell cycle arrest in human ALL5 cells assessed as accumulation at S phase at 25 uM after 96 hrs in presence of CDK4/6 inhibitor palbociclib by propidium iodide staining based flow cytometric analysis (reference value: 0.07%); assay type: functional
[13] = Cell cycle arrest in human ALL5 cells assessed as accumulation at subG1 phase at 25 uM after 48 hrs by propidium iodide staining based flow cytometric analysis (reference value: 3.44 %); assay type: functional
[14] = Cell cycle arrest in human ALL5 cells assessed as accumulation at subG1 phase at 25 uM after 96 hrs by propidium iodide staining based flow cytometric analysis (reference value: 3.44 %); assay type: functional
[15] = Cell cycle arrest in human ALL5 cells assessed as accumulation at G1 phase at 25 uM after 120 hrs by propidium iodide staining based flow cytometric analysis (reference value: 70.5 %); assay type: functional
[16] = Cell cycle arrest in human ALL5 cells assessed as accumulation at S phase at 25 uM after 48 hrs by propidium iodide staining based flow cytometric analysis (reference value: 11.7 %); assay type: functional
[17] = Cell cycle arrest in human ALL5 cells assessed as accumulation at G2 phase at 25 uM after 48 hrs by propidium iodide staining based flow cytometric analysis (reference value: 13.6 %); assay type: functional
[18] = Cell cycle arrest in human ALL5 cells assessed as accumulation at G1 phase at 25 uM after 96 hrs in presence of CDK4/6 inhibitor palbociclib by propidium iodide staining based flow cytometric analysis (reference value: 97.8%); assay type: functional
[19] = Cell cycle arrest in human ALL5 cells assessed as accumulation at G1 phase at 25 uM after 48 hrs by propidium iodide staining based flow cytometric analysis (reference value: 70.5 %); assay type: functional
[20] = Cell cycle arrest in human ALL5 cells assessed as accumulation at G1 phase at 25 uM after 96 hrs by propidium iodide staining based flow cytometric analysis (reference value: 70.5 %); assay type: functional
[21] = Cell cycle arrest in human ALL5 cells assessed as accumulation at G2 phase at 25 uM after 120 hrs by propidium iodide staining based flow cytometric analysis (reference value: 13.6 %); assay type: functional
[22] = Cell cycle arrest in human ALL5 cells assessed as accumulation at G2 phase at 25 uM after 96 hrs by propidium iodide staining based flow cytometric analysis (reference value: 13.6 %); assay type: functional
[23] = Cell cycle arrest in human ALL5 cells assessed as accumulation at subG1 phase at 25 uM after 96 hrs in presence of CDK4/6 inhibitor palbociclib by propidium iodide staining based flow cytometric analysis (reference value: 1.47%); assay type: functional
[24] = Cell cycle arrest in human ALL5 cells assessed as accumulation at G1 phase at 17 uM after 120 hrs by propidium iodide staining based flow cytometric analysis (reference value: 70.5 %); assay type: functional
[25] = Cell cycle arrest in human ALL5 cells assessed as accumulation at subG1 phase at 17 uM after 96 hrs in presence of CDK4/6 inhibitor palbociclib by propidium iodide staining based flow cytometric analysis (reference value: 1.47%); assay type: functional
[26] = Cell cycle arrest in human ALL5 cells assessed as accumulation at G2 phase at 17 uM after 48 hrs by propidium iodide staining based flow cytometric analysis (reference value: 13.6 %); assay type: functional
[27] = Cell cycle arrest in human ALL5 cells assessed as accumulation at subG1 phase at 17 uM after 96 hrs by propidium iodide staining based flow cytometric analysis (reference value: 3.44 %); assay type: functional
[28] = Cell cycle arrest in human ALL5 cells assessed as accumulation at G1 phase at 17 uM after 96 hrs by propidium iodide staining based flow cytometric analysis (reference value: 70.5 %); assay type: functional
[29] = Cell cycle arrest in human ALL5 cells assessed as accumulation at G1 phase at 17 uM after 96 hrs in presence of CDK4/6 inhibitor palbociclib by propidium iodide staining based flow cytometric analysis (reference value: 97.8%); assay type: functional
[30] = Cell cycle arrest in human ALL5 cells assessed as accumulation at S phase at 17 uM after 96 hrs by propidium iodide staining based flow cytometric analysis (reference value: 11.7 %); assay type: functional
[31] = Cell cycle arrest in human ALL5 cells assessed as accumulation at G2 phase at 17 uM after 96 hrs by propidium iodide staining based flow cytometric analysis (reference value: 13.6 %); assay type: functional
[32] = system: ALL5; experiment: Increase in p53 expression in human ALL5 cells at 17 uM after 96 hrs by Western blot analysis; assay type: functional, cell-based
[33] = Cell cycle arrest in human ALL5 cells assessed as accumulation at subG1 phase at 17 uM after 48 hrs by propidium iodide staining based flow cytometric analysis (reference value: 3.44 %); assay type: functional
[34] = Cell cycle arrest in human ALL5 cells assessed as accumulation at S phase at 17 uM after 96 hrs in presence of CDK4/6 inhibitor palbociclib by propidium iodide staining based flow cytometric analysis (reference value: 0.07%); assay type: functional
[35] = Cell cycle arrest in human ALL5 cells assessed as accumulation at S phase at 17 uM after 48 hrs by propidium iodide staining based flow cytometric analysis (reference value: 11.7 %); assay type: functional
[36] = Cell cycle arrest in human ALL5 cells assessed as accumulation at G1 phase at 17 uM after 48 hrs by propidium iodide staining based flow cytometric analysis (reference value: 70.5 %); assay type: functional
[37] = Cell cycle arrest in human ALL5 cells assessed as accumulation at S phase at 17 uM after 120 hrs by propidium iodide staining based flow cytometric analysis (reference value: 11.7 %); assay type: functional
[38] = Cell cycle arrest in human ALL5 cells assessed as accumulation at subG1 phase at 17 uM after 120 hrs by propidium iodide staining based flow cytometric analysis (reference value: 3.44 %); assay type: functional
[39] = Cell cycle arrest in human ALL5 cells assessed as accumulation at G2 phase at 17 uM after 96 hrs in presence of CDK4/6 inhibitor palbociclib by propidium iodide staining based flow cytometric analysis (reference value: 0.64%); assay type: functional
[40] = Cell cycle arrest in human ALL5 cells assessed as accumulation at G2 phase at 17 uM after 120 hrs by propidium iodide staining based flow cytometric analysis (reference value: 13.6 %); assay type: functional

COc1ccc(/C=C/C(=O)Oc2ccc(/C=C/c3cc(OC(=O)/C=C/c4ccc(OC)c(OC)c4)cc(OC(=O)/C=C/c4ccc(OC)c(OC)c4)c3)cc2)cc1OC
IC50 [1]: > 10 µM

O=C(/C=C/c1ccc(O)cc1)Oc1ccc(/C=C/c2cc(OC(=O)/C=C/c3ccc(O)cc3)cc(OC(=O)/C=C/c3ccc(O)cc3)c2)cc1
IC50 [1]: > 10 µM

O=C(/C=C/c1cccc(O)c1)Oc1ccc(/C=C/c2cc(OC(=O)/C=C/c3cccc(O)c3)cc(OC(=O)/C=C/c3cccc(O)c3)c2)cc1
IC50 [1]: 10 µM

CCCCCCCCCC(=O)Oc1ccc(/C=C/c2cc(OC(=O)CCCCCCCCC)cc(OC(=O)CCCCCCCCC)c2)cc1
IC50 [1]: > 10 µM

COc1cc(/C=C/C(=O)Oc2ccc(/C=C/c3cc(OC(=O)/C=C/c4cc(OC)c(O)c(OC)c4)cc(OC(=O)/C=C/c4cc(OC)c(O)c(OC)c4)c3)cc2)cc(OC)c1O
IC50 [1]: > 10 µM

COc1cc(C(=O)Oc2ccc(/C=C/c3cc(OC(=O)c4cc(OC)c(OC)c(OC)c4)cc(OC(=O)c4cc(OC)c(OC)c(OC)c4)c3)cc2)cc(OC)c1OC
IC50 [1]: > 10 µM

COc1cccc(C(=O)Oc2ccc(/C=C/c3cc(OC(=O)c4cccc(OC)c4OC)cc(OC(=O)c4cccc(OC)c4OC)c3)cc2)c1OC
IC50 [1]: > 10 µM

O=C(Oc1ccc(/C=C/c2cc(OC(=O)c3c(Cl)cccc3Cl)cc(OC(=O)c3c(Cl)cccc3Cl)c2)cc1)c1c(Cl)cccc1Cl
IC50 [1]: > 10 µM

O=C(Oc1ccc(/C=C/c2cc(OC(=O)c3ccccc3)cc(OC(=O)c3ccccc3)c2)cc1)c1ccccc1
IC50 [1]: > 10 µM

CC(=O)c1c(C)c2cnc(Nc3ccc(N4CCNCC4)cn3)nc2n(C2CCCC2)c1=O [PALBOCICLIB]
Activity [2]: 98.1%
Activity [3]: 0.29%
Activity [4]: 0.8%
Activity [5]: 0.76%

CC(C)C(=O)Oc1ccc(/C=C/c2cc(OC(=O)C(C)C)cc(OC(=O)C(C)C)c2)cc1
Activity [6]: 6.34%
Activity [7]: inactive
Activity [8]: Active
Activity [9]: 0.45%
Activity [10]: 63.7%
Activity [11]: 9.11%
Activity [12]: 0.21%
Activity [13]: 23.1%
Activity [14]: 48.1%
Activity [15]: 26.1%
Activity [16]: 2.14%
Activity [17]: 2.02%
Activity [18]: 93.6%
Activity [19]: 72.5%
Activity [20]: 44.8%
IC50 [1]: 5.1 µM
Activity [21]: 0.49%
Activity [22]: 0.34%
Activity [23]: 5.76%

CC(C)CC(=O)Oc1ccc(/C=C/c2cc(OC(=O)CC(C)C)cc(OC(=O)CC(C)C)c2)cc1
Activity [6]: 5.14%
Activity [7]: inactive
Activity [8]: Active
Activity [9]: 0.46%
Activity [10]: 69.9%
Activity [11]: 4.32%
Activity [12]: 0.28%
Activity [13]: 16.4%
Activity [14]: 59.4%
Activity [15]: 24.5%
Activity [16]: 9.6%
Activity [17]: 6.99%
Activity [18]: 91.6%
Activity [19]: 66.4%
Activity [20]: 32.5%
IC50 [1]: 4.9 µM
Activity [21]: 0.86%
Activity [22]: 2.2%
Activity [23]: 7.6%

Oc1ccc(/C=C/c2cc(O)cc(O)c2)cc1 [RESVERATROL]
IC50 [1]: 10.5 µM

O=C(CCl)Oc1ccc(/C=C/c2cc(OC(=O)CCl)cc(OC(=O)CCl)c2)cc1
IC50 [1]: 10 to 10.5 µM

CC(=O)Oc1ccc(/C=C/c2cc(OC(C)=O)cc(OC(C)=O)c2)cc1 [TRIACETYLRESVERATROL]
Activity [24]: 18.5%
Activity [25]: 1.33%
Activity [7]: inactive
Activity [26]: 3.23%
Activity [27]: 54.6%
Activity [28]: 15.5%
Activity [29]: 98.1%
Activity [30]: 16%
Activity [31]: 13.1%
Activity [32]: Active
Activity [33]: 12.3%
Activity [34]: 0.06%
Activity [35]: 20.8%
IC50 [1]: 3.4 µM
Activity [36]: 62.5%
Activity [37]: 12.5%
Activity [38]: 60.9%
Activity [39]: 0.54%
Activity [40]: 7.59%

COc1cc(/C=C/C(=O)Oc2ccc(/C=C/c3cc(OC(=O)/C=C/c4ccc(O)c(OC)c4)cc(OC(=O)/C=C/c4ccc(O)c(OC)c4)c3)cc2)ccc1O
IC50 [1]: 10 µM

O=C(/C=C/c1ccccc1)Oc1ccc(/C=C/c2cc(OC(=O)/C=C/c3ccccc3)cc(OC(=O)/C=C/c3ccccc3)c2)cc1
IC50 [1]: > 10 µM
